Measured values as given in patent publication US10299999B2, “Flavour composition comprising menthol and menthane carboxamides” (Givaudan, S.A., priority 2011, dated 2019).

Assay: Toothpaste sensory panel: flavours A-C at 1% in silica toothpaste base, scored 0-10 for cooling, tingling, freshness and overall preference
Type: in vivo, naive volunteers
Conditions: low levels replacing high levels of menthol in a toothpaste flavour
Method: The Flavours were each incorporated into a standard silica toothpaste base at 1%:
All three toothpastes were coded and given to 37 naive volunteers. The volunteers were asked to brush the teeth for 30 seconds and score each toothpaste (0-10 scale) for cooling, tingling and freshness at each of six time points: 0 minutes, 5 minutes, 10 minutes, 20 minutes, 30 minutes and 60 minutes. At the end of the 60 minutes, they were also asked for their overall preference scores (0-10 scale).

For `CC(C)[C@@H]1CC[C@@H](C)C[C@H]1C(=O)Nc1ccc(CC#N)cc1` (stereo in doubt) [Evercool 180, N-(4-cyanomethylphenyl) p-menthanecarboxamide], the “sensorial benefits compared with the flavour with the high levels of menthol” value was “superior sensorial benefits”.
